# Counter-ions that a name gives are not always drawn.
# Assays:
# [1] = test system: spinocerebellar ataxia (SCA); assay: Phase 3 clinical study: adverse events of fall, safety and tolerability; assay type: in vivo, human
# Protocol: (§1) The purpose of this study is to compare the efficacy of Troriluzole (200 mg once daily) versus placebo after 48 weeks of treatment in subjects with spinocerebellar ataxia (SCA).
# (§2) • Study Type: Interventional (Clinical Trial) • Actual Enrollment: 218 participants • Allocation: Randomized • Intervention Model: Parallel Assignment • Masking: Triple (Participant, Care Provider, Investigator) • Primary Purpose: Treatment • Official Title: A Phase III, Long-Term, Randomized, Double-blind, Placebo-controlled Trial of Troriluzole in Adult Subjects With Spinocerebellar Ataxia.
# (§3) • Arm • Experimental: Arm 1: BHV-4157 • Troriluzole 200 mg by mouth • Placebo Comparator: Arm 2: Placebo • Placebo 200 mg by mouth • Intervention/Treatment • Drug: troriluzole • 200 mg by mouth • Drug: placebo • 200 mg by mouth
# • 1. Change from baseline in Patient Impression of Function and Activities of Daily Living Scale (PIFAS) score at Randomization Phase Week 48. [Time Frame: Baseline to week 48] • An increase in the total score indicates a worsening of symptoms. • 2. Change from baseline in Activities of Daily Living Scale from the Friedreich's Ataxia Rating Scale (FARS-ADL) at Randomization Week 48. [Time Frame: Baseline to week 48] • An increase in the total score indicates a worsening of symptoms. • 3. Change from baseline in Functional Staging for Ataxia from the Friedreich's Ataxia Rating Scale (FARS-FUNC) at Randomization Phase Week 48. [Time Frame: Baseline to week 48] • An increase in the total score indicates a worsening of symptoms. • 4. Frequency of subjects with the following adverse events (AEs) identified from case report forms: AEs (by severity; by relationship to study drug; overall); SAEs; and AEs leading to treatment discontinuation. [Time Frame: Baseline to week 48]
# [2] = Solubility of drug substance in water; assay type: physicochemical
# [3] = test system: spinocerebellar ataxia (SCA); assay: Phase 3 clinical study of troriluzole in spinocerebellar ataxia: f-SARA total score change; assay type: in vivo, human; conditions: for LS mean change difference in f-SARA score from baseline vs placebo: Week 48, 200 mg daily
# Protocol: Phase 3 Clinical Study for Troriluzole in Adult Subjects with Spinocerebellar Ataxia
# as §1, §2, §3
# • 1. Change from Baseline in the total score of the Modified Functional Scale for the Assessment and Rating of Ataxia (f-SARA) after 48 weeks of treatment. [Time Frame: Baseline to week 48] • An increase in the total score indicates a worsening of symptoms.
# • 1. Subjects with a known or suspected diagnosis of the following specific hereditary ataxias: SCA1, SCA2, SCA3, SCA6, SCA7, SCA8 and SCA10; currently only enrolling SCA 1, SCA2, SCA3, SCA7, and SCA10 (the cap has been met for SCA6 and SCA8 (on May 31, 2019)); • a. A subject should have a confirmed genotypic diagnosis from a CLIA certified lab (can produce test results); or • b. A subject has a family member that has a confirmed genotypic diagnosis from a CLIA certified lab (can produce test results) and must be willing to undergo genetic testing to confirm underlying SCA diagnosis; or • c. A subject has a confirmed genotypic diagnosis from a lab that is not CLIA certified and must be willing to undergo genetic testing to confirm underlying SCA diagnosis; or • d. […] Ability to ambulate 8 meters without human assistance (canes and other devices allowed). • 3. Screening f-SARA total score ≥3. • 4. Score of ≥1 on gait subsection of the f-SARA. • 5. Determined by the investigator to be medically stable at Baseline/randomization as assessed by medical history, physical examination, laboratory test results, and electrocardiogram testing.
# • 1. A ≥2-point difference on the Modified Functional SARA score between screening and baseline. • 2. MMSE score <24. • 3. […] A prominent spasticity or dystonia that, in the opinion of the investigator, will compromise the ability of the SARA instrument to assess underlying ataxia severity. • 5. A score of 4 on any individual item (Items 1-4) of the f-SARA. • 6. Subjects should be excluded at screening or baseline if medical conditions have arisen or there is a change in disease status that could confound the ability of the SARA to accurately reflect changes in ataxia severity. • 7. Active liver disease or a history of hepatic intolerance to medications that in the investigator's judgment, is medically significant.
compound,measurement,setting,value
"CN(CC(=O)Nc1nc2ccc(OC(F)(F)F)cc2s1)C(=O)CNC(=O)CN [troriluzole, 2-amino-N-({methyl-[(6-trifluoromethoxy-benzothiazol-2-ylcarbamoyl)-methyl]-carbamoyl}-methyl)-acetamide monohydrate monohydrochloride]",reduction of fall risk versus placebo,"[1]; SCA3 genotype, patient reported falls as adverse events, nominal p=0.04",approximately 50%
same,AE incidence of falls,"[1]; SCA3 genotype, placebo 32%",16%
same,reduction of fall risk versus placebo,"[1]; all genotypes, patients able to ambulate at baseline (f-SARA Gait Item score=1), nominal p=0.043",approximately 59%
same,AE incidence of falls,"[1]; all genotypes, patients able to ambulate at baseline (f-SARA Gait Item score=1), placebo 23%",10%
same,safety and tolerability profile,"[1]; overall, Phase 3 study",favorable safety and tolerability profile
same,solubility in water,[2],freely soluble in water
same,LS mean change difference compared to placebo,"[3]; SCA3 patient able to walk without assistance at baseline, week 4, 200 mg daily",at least −0.67
same,LS mean change difference compared to placebo,"[3]; SCA3 patient, week 4, 200 mg daily",at least −0.46
same,LS mean change difference compared to placebo,"[3]; SCA3 patient, week 8, 200 mg daily (first statement)",at least −0.12
same,LS mean change difference compared to placebo,"[3]; SCA3 patient, week 8, 200 mg daily (subgroup not given)",at least −0.33
same,LS mean change difference compared to placebo,"[3]; SCA3 patient, week 12, 200 mg daily (first statement)",at least −0.46
same,LS mean change difference compared to placebo,"[3]; SCA3 patient, week 12, 200 mg daily (subgroup not given)",at least −0.71
same,LS mean change difference compared to placebo,"[3]; SCA3 patient, week 24, 200 mg daily (first statement)",at least −0.17
same,LS mean change difference compared to placebo,"[3]; SCA3 patient, week 24, 200 mg daily (subgroup not given)",at least −0.40
same,LS mean change difference compared to placebo,"[3]; SCA3 patient, week 36, 200 mg daily (first statement)",at least −0.72
same,LS mean change difference compared to placebo,"[3]; SCA3 patient, week 36, 200 mg daily (subgroup not given)",at least −0.55
same,LS mean change difference in f-SARA score from baseline vs placebo,"[3]; SCA3 patients able to walk without assistance at baseline (f-SARA Gait Item score=1), nominal p=0.031, 95% CI −1.36, −0.07",−0.71
same,LS mean change difference in f-SARA score from baseline vs placebo,"[3]; SCA3 subgroup, nominal p=0.053, 95% CI −1.12, 0.01, post-hoc",−0.55
same,"primary endpoint, change from baseline to Week 48 on f-SARA (statistical outcome)","[3]; overall SCA population, 200 mg once daily vs placebo, 48 weeks, p=0.76",did not reach statistical significance
same,f-SARA score at the 48-week endpoint,"[3]; overall study population N=213, mean baseline score 4.9, 200 mg once daily, placebo 5.2",5.1
